Assays:
RPA = target: T1, RPA (Homo sapiens, UniProt P15927+P27694+P35244); test: WaterLOGSY NMR analysis of compound binding to RPA; conditions: 20 or 40 μM compound, 3.3 μM RPA
T1 construct: made in house
Source text: Compounds ‘1’ and ‘6’ physically interact with RAD52: To confirm that the selected compounds bind RAD52, we employed water-ligand observation with gradient spectroscopy (WaterLOGSY), an NMR technique, which is based on transfer of magnetization from bulk water to the protein-bound compound of interest (Dalvit et al., 2001, Dalvit et al., 2000). In WaterLOGSY spectrum, if a compound binds to a protein, the compound will receive negative nuclear Overhauser effects (NOEs) due to the slow tumbling of the protein-compound complex, leading to a positive WaterLOGSY peak.
WaterLOGSY NMR analysis of the compound binding to RAD52 and RPA proteins: Compound binding to RAD52 and RPA proteins was analyzed using water-ligand observation with gradient spectroscopy (WaterLOGSY) NMR experiments (Dalvit et al., 2001, Dalvit et al., 2000). The WaterLOGSY spectra of compounds in the presence of RAD52 or RPA were acquired using a water NOE mixing time of 1 s and a T2 relaxation filter of 50 ms just before data acquisition to suppress the broad signals derived from protein. The protein buffer used in the experiments contains 10 mM Tris-d11, 75 mM KCl, 0.25 mM EDTA, pH 7.5, and 10% D20. All NMR data were acquired on a Bruker Avance II 800 MHz NMR spectrometer equipped with a sensitive cryoprobe and recorded at 25° C. The ^1H chemical shifts were referenced to 2,2-dimethyl-2-silapentane-5-sulfonate (DSS). NMR spectra were processed using NMR Pipe (Delaglio et al., 1995) and analysed using NMR View (Johnson and Blevins, 1994).

RPA-ssDNA interaction = target: T2, RPA-ssDNA interaction (Homo sapiens, UniProt P15927+P27694+P35244); test: FRET titration of the RPA-Cy3-dT30-Cy5 complex; format: binding
T2 construct: made in house
Source text: Compounds ‘1’ and ‘6’ inhibit RAD52 binding to and annealing of the RPA-coated ssDNA: In the cell, ssDNA is typically found in complex with Replication protein A (RPA), which is the major eukaryotic ssDNA-binding protein essential for DNA replication, repair and recombination (Wold, 1997, Oakley and Patrick, 2010, Chen and Wold, 2014). The RPA-ssDNA complex is a natural substrate for the RDA52-mediated strand annealing. To confirm that compounds ‘1’ and ‘6’ can inhibit the RAD52 binding to and annealing of the RPA-coated ssDNA we added stoichiometric amounts of RPA (1 RPA per 30 nucleotides of ssDNA) to the FRET-based ssDNA binding/wrapping and ssDNA annealing experiments described above. RPA binds ssDNA with high affinity and extends the ssDNA to its contour length. In our assays such an extension manifests as a distinct FRET state of ˜0.3, which is readily distinguished from a FRET state of ˜0.48 of free Cy3-dT30-Cy5 ssDNA, as well as ˜0.63 FRET of the stoichiometric ssDNA-RPA-RAD52 complex (see FIG. 2 Supplement 1 and (Grimme and Spies, 2011) for details). […] Both, however, inhibited the RAD52 binding to and wrapping of RPA-coated ssDNA with IC50 values identical to those determined without RPA (FIG. 2e and FIG. 3e).
where FRET0 is the initial FRET value of RAD52-ssDNA complex in the absence of the compound and FRETmin is the FRET value at complete inhibition. FRET values were calculated as an average of three or more independent annealing reactions plotted against the concentration of the compound. Inhibition of the RAD52-dsDNA interaction was assayed in a similar experiment, except the stoichiometric complexes containing 1 nM molecules of Cy3-Oligo28-Cy5 duplex DNA and 10 nM RAD52. […] In all experiments, the FRET values for each data point were corrected for the effects of the compounds on the respective substrate in the absence of RAD52.

GM01604 cells = test: Neutral comet assay of RAD52/MUS81-dependent DSB formation; format: cell-based, human; conditions: for IC50 for decrease of mean tail moment following HU treatment, in words: 2 mM HU + 300 nM UCN01, 6 h
Source text: Inhibiting the RAD52-ssDNA interaction interferes with RAD52/MUS81-mediated DSB formation essential for the replication fork recovery in check point deficient cells: In human cells, RAD52 may perform both limited recombination-mediator function in the RAD51-dependent pathway (Lok and Powell, 2012, Benson et al., 1998, Feng et al., 2011) as well as additional RAD51-independent roles (Lok and Powell, 2012, Murfuni et al., 2013, Mcllwraith and West, 2008). One of these HR independent roles of RAD52 involves stimulation of MUS81/EME1-dependent DSB formation at the replication forks stalled by hydroxyurea (HU) treatment in the absence of cellular checkpoints (Murfuni et al., 2013). Since the most likely targets of these MUS81/EME1/RAD52-dependent DSBs are the DNA structures produced by RAD52 (Murfuni et al., 2013), we expected this activity to depend on the RAD52-ssDNA interaction (FIG. 5a). To confirm this, we assessed DSB formation in the checkpoint deficient cells using the neutral comet assay. These assays monitor MUS81/EME1/RAD52-dependent DSB formation upon induction of replication stress by HU treatment in primary fibroblasts immortalized by hTERT expression and treated with UNC01 to inhibit CHK1 kinase (FIG. 5b). […] Importantly, these inhibitors recapitulate RAD52 depletion by inhibiting RAD52-MUS81-dependent DSBs at stalled replication forks (FIG. 5a-b). […] It also confirms our previous supposition that the target of MUS81/EME1-mediated cleavage under these conditions are indeed the structures annealed by RAD52. […] We previously reported that concomitant depletion of RAD52 and MUS81 gives raise to the MUS81-independent DSBs (Murfuni et al., 2013). […] Furthermore, accumulation of anaphase bridges, a phenotype associated with impairment of the RAD52-independent mitotic function of MUS81/EME1 was completely unaffected by inhibition of RAD52, whereas it was strongly stimulated by MUS81 silencing (FIG. 5 Supplement 1).
Neutral Comet Assay: To induce RAD52-MUS81-dependent cleavage at arrested replication forks (Murfuni et al., 2013), hTERT-immortalized wild-type human fibroblasts (GM01604) were treated with 2 mM HU and 300 nM UCN01 for 6 h, in the presence and absence of varying concentrations of ‘1’ or ‘6’. Where indicated, the GM01604 cells were cells were transfected with siRNAs directed against GFP (Ctrl), or against RAD52 (Qiagen) 48 hours prior to induction of the replication stress and/or inhibitor treatment. After that cells were subjected to neutral comet assay as described in Murfuni et al (Murfuni et al., 2013). Slides were analyzed by a computerized image analysis system (Comet IV, Perceptive UK). To assess the quantity of DNA damage, computer-generated tail moment values (tail length×fraction of total DNA in the tail) were used. Apoptotic cells (smaller comet head and extremely larger comet tail) were excluded from the analysis to avoid artificial enhancement of tail moment. A minimum of 100 cells were analyzed for each compound concentration point.

T1 sequence (P27694 whole entry): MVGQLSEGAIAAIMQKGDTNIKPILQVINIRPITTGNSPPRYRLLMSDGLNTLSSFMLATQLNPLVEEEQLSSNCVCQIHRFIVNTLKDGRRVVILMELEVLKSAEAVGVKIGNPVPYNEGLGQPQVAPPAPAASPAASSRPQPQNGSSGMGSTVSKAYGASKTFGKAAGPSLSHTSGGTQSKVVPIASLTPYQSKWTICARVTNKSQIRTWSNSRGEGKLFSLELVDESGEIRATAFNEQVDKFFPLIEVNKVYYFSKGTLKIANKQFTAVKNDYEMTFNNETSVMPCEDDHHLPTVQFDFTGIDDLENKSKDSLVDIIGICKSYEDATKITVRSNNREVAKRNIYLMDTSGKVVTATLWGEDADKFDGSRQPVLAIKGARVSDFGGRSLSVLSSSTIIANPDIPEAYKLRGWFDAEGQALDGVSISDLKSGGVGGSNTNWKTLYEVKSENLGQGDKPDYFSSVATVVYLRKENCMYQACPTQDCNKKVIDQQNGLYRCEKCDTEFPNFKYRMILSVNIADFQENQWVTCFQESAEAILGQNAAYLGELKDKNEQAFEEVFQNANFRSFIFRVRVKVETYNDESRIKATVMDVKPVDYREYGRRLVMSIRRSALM
T1 sequence (P15927 whole entry): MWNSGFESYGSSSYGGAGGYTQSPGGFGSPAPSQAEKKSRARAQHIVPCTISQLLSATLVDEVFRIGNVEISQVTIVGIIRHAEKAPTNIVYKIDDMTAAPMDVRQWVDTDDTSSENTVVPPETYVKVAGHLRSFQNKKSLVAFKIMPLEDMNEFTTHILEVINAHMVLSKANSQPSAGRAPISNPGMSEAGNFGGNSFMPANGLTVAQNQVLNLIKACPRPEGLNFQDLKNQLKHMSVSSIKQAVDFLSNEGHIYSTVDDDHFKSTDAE
T1 sequence (P35244 whole entry): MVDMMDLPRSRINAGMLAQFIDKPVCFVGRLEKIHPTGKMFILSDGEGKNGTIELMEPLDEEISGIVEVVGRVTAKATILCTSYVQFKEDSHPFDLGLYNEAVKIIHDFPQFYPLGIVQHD
T2 sequence (P27694 whole entry): as the sequence (P27694 whole entry) above
T2 sequence (P15927 whole entry): as the sequence (P15927 whole entry) above
T2 sequence (P35244 whole entry): as the sequence (P35244 whole entry) above

SMILES | Binding to RPA by WaterLOGSY (RPA) | Effect on the RPA-ssDNA interaction (RPA-ssDNA interaction) | Reduction in DSBs compared with siRNA depletion of RAD52 (GM01604 cells; 500 nM compound, HU + UCN01) | IC50 for decrease of mean tail moment following HU treatment, in words (GM01604 cells) | Concentration sufficient to achieve the same level in DSB reduction as siRNA treatment (GM01604 cells; HU + UCN01) | DSB formation in MUS81-depleted cells (GM01604 cells; replication stress induced by CHK1 inhibition) | DSB formation in RAD52-depleted cells (GM01604 cells; RAD52 siRNA plus compound)
Oc1cc(O)c2c(c1)O[C@H](c1cc(O)c(O)c(O)c1)[C@H](O)C2 [Compound ‘1’, (−)-Epigallocatechin] | neither binds to RPA | nor interferes with the RPA-ssDNA interaction | same effect of reduction in DSBs as siRNA depletion of RAD52 | mid nanomolar to low micromolar | 1 µM | appearance of the MUS81-independent DSBs | 
O=C(O[C@@H]1Cc2c(O)cc(O)cc2O[C@@H]1c1cc(O)c(O)c(O)c1)c1cc(O)c(O)c(O)c1 [Compound 6, Epigallocatechin-3-monogallate] | binds to RPA | does not interfere with the RPA-ssDNA interaction |  | mid nanomolar to low micromolar | higher concentration |  | failed to further decrease the formation of DNA breaks

— patent publication US20180209956A1, “HTS Assay for Identifying Small Molecule Inhibitors of RAD52 and Uses of Identified Small Molecule Inhibitors for Treatment and Prevention of BRCA-Deficient Malignancies” (University of Iowa Research Foundation, priority 2015, published 2018)
